# Laboratory results from patent publication US11274090B2, “P300/CBP HAT inhibitors” (Constellation Pharmaceuticals, Inc., priority 2018, dated 2022).
# Target: p300 HAT domain (residues 1287-1666) (Homo sapiens (Human), UniProt Q09472)
# Experiment: p300 HAT SPA assay (scintillation proximity assay, acetylation of biotinylated H3(1-21) peptide)
# Type: biochemical
# Details: average of at least 2 replicate titrations
# Protocol: In a typical experiment the p300 HAT inhibitory activity of the compounds described herein was determined in accordance with the following experimental method.
# The expressed protein was purified by Ni2+ affinity, followed by anion exchange chromatography. Appropriate fractions were pooled and buffer exchanged into 20 mM Hepes pH 7.5, 150 mM NaCl, and 1 mM TCEP.
# 35 μL of the reaction volume was transferred to a 384-well streptavidin FlashPlate (PerkinElmer) using a Bravo liquid handler (Velocity 11) and incubated for 1.5 hr at RT. […] Data were analyzed in Genedata to determine inhibitor IC50 values.
# Sequence of p300 HAT domain (residues 1287-1666) (Q09472 1287-1666): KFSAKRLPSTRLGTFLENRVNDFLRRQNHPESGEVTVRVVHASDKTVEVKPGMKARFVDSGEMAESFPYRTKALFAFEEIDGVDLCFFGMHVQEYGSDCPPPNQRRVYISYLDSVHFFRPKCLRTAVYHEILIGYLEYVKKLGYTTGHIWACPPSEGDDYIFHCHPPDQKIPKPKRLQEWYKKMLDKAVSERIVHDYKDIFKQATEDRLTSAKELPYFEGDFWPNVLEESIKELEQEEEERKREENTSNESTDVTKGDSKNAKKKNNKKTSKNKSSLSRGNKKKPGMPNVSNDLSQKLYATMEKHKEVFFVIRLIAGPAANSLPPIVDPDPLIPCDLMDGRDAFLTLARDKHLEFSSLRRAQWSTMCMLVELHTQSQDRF
row,Compound,IC50
1,"CCCCCCc1cccc(C(NCCc2ccc(C#N)cc2)C(=O)Nc2ccc(-c3cnn(C)c3)cn2)c1 (single isomer, unassigned) [118 Isomer 1]",> 2000 nM
2,"Cn1cc(-c2ccc(NC(=O)C(NCC(c3ccc(C#N)cc3)C(F)(F)F)c3ccccc3)nc2)cn1 (single isomer, unassigned) [149 Isomer 3]",647 nM
3,"Cc1nc(NC(=O)C(NCC(C)c2ccc(C#N)cc2)c2ccccc2)ccc1-c1cnn(C)c1 (single isomer, unassigned) [39 Isomer 1]",> 2000 nM
4,"N#Cc1ccc(CCNC(C(=O)Nc2ccc(N3CCCC3)nc2)c2ccccc2)cc1 (single isomer, unassigned) [35 Isomer 1]",> 5000 nM
5,"CC(CNC(C(=O)Nc1ccc(-c2cnn(C)n2)cn1)c1ccccc1)c1ccc(C(F)(F)F)cc1 (single isomer, unassigned) [99 Isomer 3]",> 2000 nM
6,"CC(CNC(C(=O)Nc1ccc(-n2cnc(C(C)(C)C)c2)cn1)c1ccccc1)c1ccc(C#N)cc1 (single isomer, unassigned) [59 Isomer 2]",> 2000 nM
7,"NS(=O)(=O)c1ccc(CCN[C@H](C(=O)N2CCc3ccccc32)c2ccccc2)cc1 (single isomer, unassigned) [153 Isomer 1]",> 60000 nM
8,"Cn1cc(-c2ccc(NC(=O)C(NCC3(c4ccc(Cl)cc4)CC3)c3ccccc3)nc2)cn1 (single isomer, unassigned) [97 Isomer 2]",> 2000 nM
9,"CC(CNC(C(=O)Nc1ccc(N2CCN(C)C(=O)C2)cn1)c1cnn(C)c1)c1ccc(C#N)cc1 (single isomer, unassigned) [136 Isomer 1]",> 2000 nM
10,"Cc1ccc(-c2ccc(NC(=O)C(NCC(C)c3ccc(C#N)cc3)c3ccccc3)nc2)nn1 (single isomer, unassigned) [15 Isomer 3]",> 2000 nM
11,"Cc1cc(C#N)ccc1CCNC(C(=O)Nc1ccc(-c2cnn(C)c2)cn1)c1ccccc1 (single isomer, unassigned) [41 Isomer 2]",1790 nM
12,"C[C@H](CNC(C(=O)Nc1ccc(N2CCN(C)C(=O)C2)cn1)c1cccc(F)c1)c1ccc(C#N)cc1 (single isomer, unassigned) [137 Isomer 1]",783 nM
13,"CC(CNC(C(=O)Nc1ccc(-c2cnn(C(F)F)c2)cn1)c1cnn(C)c1)c1ccc(C#N)cc1 (single isomer, unassigned) [128 Isomer 2]",> 2000 nM
14,"(S,R)-, (R,S)-, (S,S)-, (R,R)-(2-((2-(4-cyanophenyl)propyl)amino)-N-(5-(1-(difluoromethyl)-1H-pyrazol-4-yl)pyridin-2-yl)-2-phenylacetamide [20 Isomer 1]",925 nM
15,"Cn1cc(-c2ccc(NC(=O)C(NCCc3ccc(C#N)cc3)c3cccc(C(F)(F)F)c3)nc2)cn1 (single isomer, unassigned) [117 Isomer 2]",> 2000 nM

# The next compounds have a lower IC50 than those just listed; values first:
row,IC50,Compound
1,612 nM,"CC(CNC(C(=O)Nc1ccc(-c2cnn(C3CCC3)c2)cn1)c1ccccc1)c1ccc(C#N)cc1 (single isomer, unassigned) [52 Isomer 1]"
2,503 nM,"CC(CNC(C(=O)Nc1ccc(-c2cnn(CC(F)(F)F)c2)cn1)c1ccccc1)c1ccc(C#N)cc1 (single isomer, unassigned) [83 Isomer 3]"
3,448 nM,"CC(CNC(C(=O)Nc1ccc(-c2cnn(C(C)(C)C#N)c2)cn1)c1ccccc1)c1ccc(C#N)cc1 (single isomer, unassigned) [47 Isomer 1]"
4,279 nM,"Cc1cnc(-c2ccc(NC(=O)C(NCCc3ccc(C#N)cc3)c3ccccc3)cc2)[nH]1 (single isomer, unassigned) [11 Isomer 1]"
5,133 nM,"Cc1cnc(-c2ccc(NC(=O)[C@@H](NCCc3ccc(Cl)cc3)c3ccccc3)cc2)[nH]1 (single isomer, unassigned) [9 Isomer 2]"
6,67.4 nM,"N#Cc1ccc(CCNC(C(=O)Nc2ccc(N3CCC4(COC4)C3)cn2)c2ccccc2)cc1 (single isomer, unassigned) [96 Isomer 1]"
7,20.9 nM,"Cc1ncc(-c2ccc(NC(=O)[C@H](NC[C@H](C)c3ccc(C#N)cc3)c3ccccc3)nc2)cn1 (single isomer, unassigned; isomer 4) [6 Isomer 4]"
